The values below are quoted from earlier work in article PMC8965884, “Synthesis and Characterization of Phenylboronic Acid-Modified Insulin With Glucose-Dependent Solubility” (Frontiers in Chemistry, 2022).

Usually pKa stands for the pH at which an ionisable group is half protonated.

The text on this data set:
Insulin glargine, marketed as Lantus®, is a long-acting insulin analog with a 24-h dosing regimen. The additional 2 arginine residues on the C-terminus of the B chain increases its isoelectric point (pI) 6.7, which lowers its solubility at physiological pH and leads to precipitation at the subcutaneous injection site ([Kohn et al., 2007]). Glargine is then released slowly from the precipitate into the bloodstream to establish the long-acting property.

As for `OB(O)c1ccccc1` [PBA, phenylboronic acids], the pKa (non-substituted PBA, ref Yan et al., 2004) is 8.8.

With Insulin glargine, the “isoelectric point (pI)” value (ref Kohn et al., 2007) is listed as 6.7.
